Test results taken from US8586591B2, “Aminopyrazine derivative and medicine” (Nippon Shinyaku Co., Ltd., priority 2009, dated 2013).
pIC50: −log10 of the molar value. Structures can show the parent of a compound that is named as a salt.

Experiments:
[1] = target: T1, JAK3 tyrosine kinase (Homo sapiens, UniProt P52333); test: Test 1: inhibitory activity to JAK3 tyrosine kinase (ELISA); type: biochemical; conditions: 25 μM ATP in substrate solution, 30° C. for 1 hour, n=2
T1 construct: purchased Carnabioscience Co
T1 sequence (P52333 1-1124): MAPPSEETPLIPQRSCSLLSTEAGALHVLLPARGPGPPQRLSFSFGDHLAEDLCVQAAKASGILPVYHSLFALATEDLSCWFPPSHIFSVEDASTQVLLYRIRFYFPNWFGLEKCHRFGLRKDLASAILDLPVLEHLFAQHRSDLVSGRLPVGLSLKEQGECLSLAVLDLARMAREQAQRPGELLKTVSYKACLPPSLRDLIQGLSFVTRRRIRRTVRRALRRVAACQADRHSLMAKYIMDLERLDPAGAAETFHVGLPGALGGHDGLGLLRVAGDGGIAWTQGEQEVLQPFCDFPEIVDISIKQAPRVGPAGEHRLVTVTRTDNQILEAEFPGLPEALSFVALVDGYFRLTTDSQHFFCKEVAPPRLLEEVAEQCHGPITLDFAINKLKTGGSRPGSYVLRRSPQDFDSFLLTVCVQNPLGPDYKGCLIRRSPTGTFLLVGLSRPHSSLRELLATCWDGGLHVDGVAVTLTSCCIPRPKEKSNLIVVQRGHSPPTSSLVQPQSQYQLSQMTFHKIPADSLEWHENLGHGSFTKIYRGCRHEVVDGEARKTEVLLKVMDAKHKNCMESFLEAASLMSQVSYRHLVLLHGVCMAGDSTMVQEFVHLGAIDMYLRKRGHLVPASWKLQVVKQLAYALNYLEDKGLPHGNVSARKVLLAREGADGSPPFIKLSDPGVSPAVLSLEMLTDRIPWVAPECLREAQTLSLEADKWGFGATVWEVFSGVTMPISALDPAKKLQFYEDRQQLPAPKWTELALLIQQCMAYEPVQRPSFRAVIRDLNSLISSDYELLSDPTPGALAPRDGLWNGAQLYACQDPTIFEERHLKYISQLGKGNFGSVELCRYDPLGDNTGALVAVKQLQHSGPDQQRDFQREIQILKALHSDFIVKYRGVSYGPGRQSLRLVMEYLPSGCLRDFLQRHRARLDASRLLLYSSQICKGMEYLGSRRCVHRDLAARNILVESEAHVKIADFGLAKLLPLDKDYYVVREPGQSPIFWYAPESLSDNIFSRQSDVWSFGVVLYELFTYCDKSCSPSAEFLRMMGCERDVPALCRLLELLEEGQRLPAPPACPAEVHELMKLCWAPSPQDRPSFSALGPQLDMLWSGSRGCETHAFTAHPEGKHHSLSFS
Method in brief: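 ELISA of JAK3 kinase activity with absorbance read at 450 nm. Compounds were tested from DMSO dilution series at 100-fold the measurement concentrations (1000–0.01 μM), diluted up to 20 times in assay buffer, against a DMSO negative control. IC50 was estimated by non-linear regression of absorbance.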

[2] = target: T2, JAK2 tyrosine kinase (Homo sapiens, UniProt O60674); test: Test 1: inhibitory activity to JAK2 tyrosine kinase (ELISA); type: biochemical; conditions: 25 μM ATP in substrate solution, 30° C. for 1 hour, n=2
T2 construct: purchased Carnabioscience Co
Method in brief: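 Human JAK2 (diluted to 0.75 nM before addition) phosphorylated a biotinylated peptide on streptavidin plates for 1 h at 30 °C. The substrate mix held 625 nM peptide, 25 μM ATP and 25 mM MgCl2 in 15 mM Tris pH 7.5, 0.01% Tween-20 and 1 mM DTT. Phosphotyrosine was detected by HRP antibody/TMB at 450 nm, and IC50 was obtained by non-linear regression; duplicates were run.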

T2 sequence (O60674 whole entry): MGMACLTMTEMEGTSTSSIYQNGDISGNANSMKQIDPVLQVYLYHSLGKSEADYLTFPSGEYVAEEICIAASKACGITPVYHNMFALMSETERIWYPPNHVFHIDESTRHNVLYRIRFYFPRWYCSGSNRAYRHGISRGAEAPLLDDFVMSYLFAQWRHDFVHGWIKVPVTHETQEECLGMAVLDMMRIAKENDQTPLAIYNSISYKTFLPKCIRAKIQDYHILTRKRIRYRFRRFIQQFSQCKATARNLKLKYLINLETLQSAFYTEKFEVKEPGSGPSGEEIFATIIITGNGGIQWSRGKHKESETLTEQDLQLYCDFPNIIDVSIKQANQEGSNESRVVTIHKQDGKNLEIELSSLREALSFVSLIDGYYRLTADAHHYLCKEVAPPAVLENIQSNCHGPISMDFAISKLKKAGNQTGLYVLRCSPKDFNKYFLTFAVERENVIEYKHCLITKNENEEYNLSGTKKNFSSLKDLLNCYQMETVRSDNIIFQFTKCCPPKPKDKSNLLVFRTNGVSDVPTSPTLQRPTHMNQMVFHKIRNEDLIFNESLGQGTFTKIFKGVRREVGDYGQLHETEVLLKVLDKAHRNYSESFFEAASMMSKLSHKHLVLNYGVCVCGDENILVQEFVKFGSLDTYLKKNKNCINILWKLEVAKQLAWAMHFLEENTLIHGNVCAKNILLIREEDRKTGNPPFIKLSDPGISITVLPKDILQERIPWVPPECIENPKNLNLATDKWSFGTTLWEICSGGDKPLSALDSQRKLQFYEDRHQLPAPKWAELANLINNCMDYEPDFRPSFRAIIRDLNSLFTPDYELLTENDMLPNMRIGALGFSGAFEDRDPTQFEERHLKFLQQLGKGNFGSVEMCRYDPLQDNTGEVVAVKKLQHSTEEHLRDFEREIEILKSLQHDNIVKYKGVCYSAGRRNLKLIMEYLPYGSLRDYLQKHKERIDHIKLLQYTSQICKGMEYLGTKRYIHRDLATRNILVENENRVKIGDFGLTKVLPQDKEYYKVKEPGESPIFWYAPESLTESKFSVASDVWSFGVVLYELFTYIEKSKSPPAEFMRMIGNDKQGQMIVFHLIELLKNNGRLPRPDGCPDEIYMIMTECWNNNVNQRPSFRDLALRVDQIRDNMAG

| Compound | pIC50 [1] | pIC50 [2] |
| --- | --- | --- |
| CC(=O)c1cc(Nc2cnccn2)nc(N[C@@H](C)c2ccc(F)cc2)c1 [Example 182, (S)-1-{2-[1-(4-Fluorophenyl)ethylamino]-6-(pyrazin-2-ylamino)pyridin-4-yl}ethanone hydrochloride] | 6.36 | 8.19 |
| CC(C)C[C@H](CO)Nc1cc(Nc2cnccn2)nc(N[C@@H](C)c2ccc(F)cc2)n1 [Example 88, (R)-2-{2-[(S)-1-(4-Fluorophenyl)ethylamino]-6-(pyrazin-2-ylamino)pyrimidin-4-ylamino}-4-methylpentan-1-ol] | 6.70 | 7.89 |
| C[C@H](Nc1cc(N2CC(C)(O)C2)cc(Nc2cnccn2)n1)c1ccc(F)cc1 [Example 205, (S)-1-{2-[1-(4-Fluorophenyl)ethylamino]-6-(pyrazin-2-ylamino)pyridin-4-yl}-3-methylazetidin-3-ol hydrochloride] | 6.77 | 8.55 |
| CC(=O)NCCNc1cc(Nc2cnccn2)nc(N[C@@H](C)c2ccc(F)cc2)n1 [Example 78, (S)—N-(2-{2-[1-(4-Fluorophenyl)ethylamino]-6-(pyrazin-2-ylamino)pyrimidin-4-ylamino}ethyl) acetamide hydrochloride] | 7.46 | 8.85 |
| COc1ccc(-c2cc(Nc3cnccn3)nc(N[C@@H](C)c3ccc(F)cc3)c2)cc1 [Example 119, (S)—N^2-[1-(4-Fluorophenyl)ethyl]-4-(4-methoxyphenyl)-N^6-(pyrazin-2-yl)pyridine-2,6-diamine hydrochloride] | 5.80 | 7.55 |
| CCC(=O)Nc1cc(Nc2cnccn2)nc(N[C@@H](C)c2ccc(F)cc2)c1 [Example 216, (S)—N-{2-[1-(4-Fluorophenyl)ethylamino]-6-(pyrazin-2-ylamino)pyridin-4-yl}propionamide] | 7.31 | 8.85 |
| C[C@H](Nc1nc(Nc2cnccn2)cc(-n2cc(C(=O)O)cn2)n1)c1ccc(F)cc1 [Example 90, (S)-1-{2-[1-(4-Fluorophenyl)ethylamino]-6-(pyrazin-2-ylamino)pyrimidin-4-yl}-1H-pyrazole-4-carboxylic acid] | 6.42 | 8.21 |
| C[C@H](Nc1nc(Nc2cnccn2)cc(-c2cccnc2)n1)c1ccc(F)cc1 [Example 13, (S)—N^2-[1-(4-Fluorophenyl)ethyl]-N^4-(pyrazin-2-yl)-6-(pyridin-3-yl)pyrimidine-2,4-diamine] | 7.15 | 8.89 |
| C[C@H](Nc1nc(Nc2cnccn2)cc(N2CC(C(=O)NC3CC3)C2)n1)c1ccc(F)cc1 [Example 197, (S)—N-(Cyclopropyl)-1-{2-[1-(4-fluorophenyl)ethylamino]-6-(pyrazin-2-ylamino)pyrimidin-4-yl}azetidine-3-carboxamide] | 7.24 | 8.80 |
| C[C@H](Nc1cc(OCCO)cc(Nc2cnccn2)n1)c1ccc(F)cc1 [Example 12, (S)-2-{2-[1-(4-Fluorophenyl)ethylamino]-6-(pyrazin-2-ylamino)pyridin-4-yloxy}ethanol hydrochloride] | 7.10 | 9.04 |
| C[C@H](Nc1nc(NCc2cccnc2)cc(Nc2cnccn2)n1)c1ccc(F)cc1 [Example 107, (S)—N^2-[1-(4-Fluorophenyl)ethyl]-N^4-(pyrazin-2-yl)-N^6-(pyridin-3-ylmethyl)pyrimidine-2,4,6-triamine] | 7.25 | 9.11 |

Next, values leading:

| pIC50 [1] | pIC50 [2] | Compound |
| --- | --- | --- |
| 7.46 | 9.10 | C[C@H](Nc1nc(Nc2cnccn2)cc(N2CC(C(=O)N3CCCC3)C2)n1)c1ccc(F)cc1 [Example 193, (S)-(1-{2-[1-(4-Fluorophenyl)ethylamino]-6-(pyrazin-2-ylamino)pyrimidin-4-yl}azetidin-3-yl)(pyrrolidin-1-yl)methanone] |
| 7.33 | 9.28 | C[C@H](Nc1nc(Nc2cnccn2)cc(N2CCN(S(C)(=O)=O)CC2)n1)c1ccc(Cl)cc1 [Example 100, (S)—N^2-[1-(4-Chlorophenyl)ethyl]-6-[4-(methylsulfonyl)piperazin-1-yl]-N^4-(pyrazin-2-yl)pyrimidine-2,4-diamine hydrochloride] |
| 7.59 | 9.16 | C[C@H](Nc1nc(Nc2cnccn2)cc(N2CCNC(C(N)=O)C2)n1)c1ccc(F)cc1 (stereo partly drawn) [Example 58, 4-{2-[(S)-1-(4-Fluorophenyl)ethylamino]-6-(pyrazin-2-ylamino)pyrimidin-4-yl}piperazin-2-carboxamide] |
| 6.36 | 8.60 | C[C@H](Nc1nc(Nc2cnccn2)cc(-c2cccc(S(C)(=O)=O)c2)n1)c1ccc(F)cc1 [Example 35, (S)—N^2-[1-(4-Fluorophenyl)ethyl]-6-[3-(methylsulfonyl)phenyl]-N^4-(pyrazin-2-yl) yrimidine-2,4-diamine hydrochloride] |
| 7.29 | 8.96 | C[C@H](Nc1cc(OCCCO)cc(Nc2cnccn2)n1)c1ccc(F)cc1 [Example 41, hydrochloride] |
| 6.89 | 8.49 | CC(C)n1cc(-c2cc(Nc3cnccn3)nc(N[C@@H](C)c3ccc(F)cc3)c2)cn1 [Example 37, (S)—N^2-[1-(4-Fluorophenyl)ethyl]-4-(1-isopropyl-1H-pyrazol-4-yl)-N^6-(pyrazin-2-yl)pyridine-2,6-diamine hydrochloride] |
| 6.62 | 8.26 | C[C@H](Nc1nc(Nc2cnccn2)ccc1C(=O)N(C)C)c1ccc(F)cc1 [Example 186, (S)-2-[1-(4-Fluorophenyl)ethylamino]-N,N-dimethyl-6-(pyrazin-2-ylamino) nicotinamide] |
| 7.22 | 8.80 | C[C@H](Nc1nc(Nc2cnccn2)cc(N2CC(C(=O)NCC3CC3)C2)n1)c1ccc(F)cc1 [Example 198, (S)—N-(Cyclopropylmethyl)-1-{2-[1-(4-fluorophenyl)ethylamino]-6-(pyrazin-2-ylamino)pyrimidin-4-yl}azetidine-3-carboxamide] |
| 7.51 | 9.02 | C[C@H](Nc1nc(Nc2cnccn2)cc(N2CC(O)C2)n1)c1ccc(F)cc1 [Example 72, (S)-1-{2-[1-(4-Fluorophenyl)ethylamino]-6-(pyrazin-2-ylamino)pyrimidin-4-yl}azetidin-3-ol hydrochloride] |
| 7.23 | 8.59 | C[C@H](Nc1nc(Nc2cnccn2)cc(N2CCCC2)n1)c1ccc(F)cc1 [Example 19, (S)—N^2-[1-(4-Fluorophenyl)ethyl]-N^4-(pyrazin-2-yl)-6-(pyrrolidin-1-yl)pyrimidine-2,4-diamine] |
| 7.24 | 8.43 | CCOC(=O)C1CCN(c2cc(Nc3cnccn3)nc(N[C@@H](C)c3ccc(F)cc3)n2)CC1 [Example 83, Ethyl (S)-1-{2-[1-(4-fluorophenyl)ethylamino]-6-(pyrazin-2-ylamino)pyrimidin-4-yl}piperidin-4-carboxylate] |
| 6.30 | 8.24 | COc1ccc(-c2cc(Nc3cnccn3)nc(N[C@@H](C)c3ccc(F)cc3)c2)cn1 [Example 6, (S)—N^2′-[1-(4-Fluorophenyl)ethyl]-6-methoxy-N^6′-(pyrazin-2-yl)-3,4′-bipyridine-2′,6′-diamine] |
| 6.66 | 8.15 | C[C@H](Nc1nc(Nc2cnccn2)cc(N2CCC[C@H]2C(N)=O)n1)c1ccc(F)cc1 [Example 64, (S)-1-{2-[(S)-1-(4-Fluorophenyl)ethylamino]-6-(pyrazin-2-ylamino)pyrimidin-4-yl}pyrrolidin-2-carboxamide hydrochloride] |
